Data reported in patent US20250339569A1, “CARBONIC ANHYDRASE IX LIGANDS” (priority 2021, published 2025).
Like-named read-outs stand apart in the source and are kept apart here. Starred links: 1 amine or outer side, 2 acyl side, 3 side chain; linkers in the order of their positions; H or OH if unused. Positions of bridges follow the written chain, without caps; N, C: chain ends. Non-standard residues stand in square brackets, D forms with d. Residues, ends and D or L forms follow the SMILES beside them. *: point of attachment. X33 = CC(=O)N[C@@H](CC(=O)Nc1cccc(C[C@H](N[*:1])C(=O)[*:2])c1)C(=O)O; DOTA = O=C(O)CN1CCN(CC(=O)O)CCN(CC(=O)*)CCN(CC(=O)O)CC1; Trp(5-Cl) = N[C@@H](Cc1c[nH]c2ccc(Cl)cc12)C(=O)O; X19 = O=C([C@H](CS(=O)(=O)Cc1ccccc1)N[*:1])[*:2]; Phe(4-NH2) = Nc1ccc(C[C@H](N)C(=O)O)cc1; mXylylene = c1cc(C[*:1])cc(C[*:2])c1; X2 = O=C(CN1CCC(N[*:1])CC1)[*:2]; X1 = O=C(CN1CCN([*:1])CC1)[*:2]; X27 = NS(=O)(=O)c1ccc(C(=O)*)s1; Cha = N[C@@H](CC1CCCCC1)C(=O)O; X39 = NS(=O)(=O)c1ccc(N*)cc1; 3Amb = NCc1cccc(C(=O)O)c1; hSer = N[C@@H](CCO)C(=O)O; Dap = NC[C@H](N)C(=O)O; Sar = CNCC(=O)O

Assays:
[1] = biological target: T1, CAIX-expressing human HT-29 colorectal cancer cells (Homo sapiens, UniProt Q16790); test: FACS binding assay (IC50 determination, competition with tracer 3BP-2776 or 3BP-4149); settings: 4° C., 1 hour, read-out: pIC50 category (activity) (converted)
T1 construct: CAIX-expressing human HT-29 colorectal cancer cells; host or cells: HT-29 human colorectal cancer cells
Procedure, shortened: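 HT-29 cells in FACS buffer (PBS, 1% FCS) at 500.000 cells/ml were exposed to compounds competing with a labelled tracer, with biotinylated compounds detected by 1 μg/mL APC-streptavidin for 30 min on ice. APC/Cy5 median fluorescence was read by flow cytometry and IC50 derived by 4PL fit.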

[2] = biological target: T2, human carbonic anhydrase IX (hCAIX-Fc) (Homo sapiens, UniProt Q16790); test: Surface plasmon resonance assay with hCAIX-Fc; format: binding; settings: 25° C.; for t1/2 category (activity): SPR dissociation half-life, hCAIX-Fc; for Kd: SPR, hCAIX-Fc captured, read-out: pKD category (activity) (converted)
T2 construct: purchased SinoBliological (Sino Biological) 10107-H02H

[3] = FACS binding assay, HT-29 cells, competition with tracer 3BP-2776 (10 nM, biotin-labeled)
[4] = FACS binding assay, HT-29 cells, competition with tracer 3BP-4149 (3 nM, Cy5-labeled)
[5] = FACS competition on HT-29 cells, Tracer ID 3BP-2776 (10 nM, biotin-labeled)

Row | SMILES | IC50 [1, 3] [µM] | t1/2 category (activity) [2] | Kd [2] [µM] | IC50 [1, 4] [µM] | IC50 [1, 5] [µM]
1 | CC(C)[C@H](NC(=O)CN1CCC(NC(=O)CN2CCN(CC(=O)O)CCN(CC(=O)O)CCN(CC(=O)O)CC2)CC1)C(=O)N[C@@H](Cc1ccc(O)cc1)C(=O)N[C@H]1CSCc2cccc(c2)CSC[C@@H](C(N)=O)NC(=O)[C@H](CO)NC(=O)[C@H](Cc2c[nH]c3ccccc23)NC(=O)[C@H]([C@@H](C)O)NC(=O)[C@H](CC2CCCCC2)NC(=O)[C@H](Cc2c[nH]c3ccccc23)NC(=O)[C@H](CC(=O)O)NC(=O)[C@H]2CCCN2C(=O)[C@H](CCC(=O)O)NC1=O [3BP-4143] ({DOTA}-[X2]VYCE[dP]DW[Cha]TWSC-NH2; linker 4-13 via mXylylene) | < 0.01 | C (t1/2 between 2.1 and 5.0 minutes) | < 0.01 |  | 
2 | CC(C)C[C@@H]1NC(=O)[C@H](Cc2c[nH]c3ccccc23)NC(=O)[C@H](CC(=O)O)NC(=O)[C@H]2CCCN2C(=O)[C@H](CCC(=O)O)NC(=O)[C@@H]2CSCc3cccc(c3)CSC[C@@H](C(N)=O)NC(=O)[C@H](CNC(=O)C[C@H](NC(=O)c3cccc(CNC(=O)CN4CCN(CC(=O)O)CCN(CC(=O)O)CCN(CC(=O)O)CC4)c3)C(=O)N2)NC(=O)[C@H](Cc2c[nH]c3ccccc23)NC(=O)[C@H]([C@@H](C)O)NC1=O [3BP-4260] ({DOTA-3Amb}-DCE[dP]DWLTW[Dap]C-NH2; lactam 1-10; linker 2-11 via mXylylene) | < 0.01 | D (t1/2≤2.0 minutes) | < 0.01 |  | 
3 | CC(C)C[C@@H]1NC(=O)[C@H](Cc2c[nH]c3ccccc23)NC(=O)[C@H](CCC(=O)Nc2ccc(S(N)(=O)=O)cc2)NC(=O)[C@H]2CCCN2C(=O)[C@H](CCC(=O)O)NC(=O)[C@@H](NC(=O)[C@H](Cc2ccc(O)cc2)NC(=O)[C@@H](NC(=O)CN2CCC(NC(=O)CN3CCN(CC(=O)O)CCN(CC(=O)O)CCN(CC(=O)O)CC3)CC2)C(C)C)CSCc2cccc(c2)CSC[C@@H](C(N)=O)NC(=O)[C@H](CO)NC(=O)[C@H](Cc2c[nH]c3ccccc23)NC(=O)[C@H]([C@@H](C)O)NC1=O [3BP-4442] ({DOTA}-[X2]VYCE[dP]E(X39)WLTWSC-NH2; linker 4-13 via mXylylene) |  | A (t1/2>15.0 minutes) | < 0.01 | 0.01 to 0.0794 | 
4 | CC(C)C[C@@H]1NC(=O)[C@H](Cc2cccc(NC(=O)Cn3cc(S(N)(=O)=O)cn3)c2)NC(=O)[C@H](CC(=O)O)NC(=O)[C@H]2CCCN2C(=O)[C@H](CCC(=O)O)NC(=O)[C@@H](NC(=O)[C@H](CCC(N)=O)NC(=O)CN2CCN(C(=O)CN3CCN(CC(=O)O)CCN(CC(=O)O)CCN(CC(=O)O)CC3)CC2)CSCc2cccc(c2)CSC[C@@H](C(N)=O)NC(=O)[C@H](CO)NC(=O)[C@H](Cc2c[nH]c3ccccc23)NC(=O)[C@H]([C@@H](C)O)NC1=O [3BP-4790] | < 0.01 | A (t1/2>15.0 minutes) | < 0.01 |  | 
5 | CC(=O)N[C@H](C(=O)N[C@@H](Cc1ccc(O)cc1)C(=O)N[C@H]1CSCc2cccc(c2)CSC[C@@H](C(N)=O)NC(=O)[C@H](C)NC(=O)[C@H](Cc2c[nH]c3ccccc23)NC(=O)[C@H]([C@@H](C)O)NC(=O)[C@H](CC(C)C)NC(=O)[C@H](Cc2c[nH]c3ccccc23)NC(=O)[C@H](CC(=O)O)NC(=O)CN(C)C(=O)[C@H](CCC(=O)O)NC1=O)C(C)C [3BP-3313] (Ac-VYCE[Sar]DWLTWAC-NH2; linker 3-12 via mXylylene) |  | C (t1/2 between 2.1 and 5.0 minutes) | < 0.01 |  | < 0.01
6 | CC(=O)N[C@H](C(=O)N[C@@H](Cc1ccc(O)cc1)C(=O)N[C@H]1CSCc2cccc(c2)CSC[C@@H](C(N)=O)NC(=O)[C@H](CCC(N)=O)NC(=O)[C@H](Cc2c[nH]c3ccccc23)NC(=O)[C@H]([C@@H](C)O)NC(=O)[C@H](CC(C)C)NC(=O)[C@H](Cc2c[nH]c3ccc(Cl)cc23)NC(=O)[C@H](CC(=O)O)NC(=O)CN(C)C(=O)[C@H](CCC(=O)O)NC1=O)C(C)C [3BP-3289] (Ac-VYCE[Sar]D[Trp(5-Cl)]LTWQC-NH2; linker 3-12 via mXylylene) |  | B (t1/2 between 5.1 and 15.0 minutes) | < 0.01 |  | < 0.01
7 | CC(C)C[C@@H]1NC(=O)[C@H](Cc2c[nH]c3ccccc23)NC(=O)[C@H](CS(=O)(=O)Cc2ccccc2)NC(=O)[C@H]2CCCN2C(=O)[C@H](CCC(=O)O)NC(=O)[C@@H](NC(=O)[C@H](Cc2ccc(O)cc2)NC(=O)[C@@H](NC(=O)CN2CCC(NC(=O)CN3CCN(CC(=O)O)CCN(CC(=O)O)CCN(CC(=O)O)CC3)CC2)C(C)C)CSCc2cccc(c2)CSC[C@@H](C(N)=O)NC(=O)[C@H](CO)NC(=O)[C@H](Cc2c[nH]c3ccccc23)NC(=O)[C@H]([C@@H](C)O)NC1=O [3BP-4123] ({DOTA}-[X2]VYCE[dP][X19]WLTWSC-NH2; linker 4-13 via mXylylene) | < 0.01 | A (t1/2>15.0 minutes) | < 0.01 |  | 
8 | CC(=O)N[C@@H](CC(=O)Nc1cccc(C[C@@H]2NC(=O)[C@H](CC(=O)O)NC(=O)[C@H]3CCCN3C(=O)[C@H](CCC(=O)O)NC(=O)[C@@H](NC(=O)[C@H](Cc3ccc(O)cc3)NC(=O)[C@@H](NC(=O)CN3CCC(NC(=O)CN4CCN(CC(=O)O)CCN(CC(=O)O)CCN(CC(=O)O)CC4)CC3)C(C)C)CSCc3cccc(c3)CSC[C@@H](C(N)=O)NC(=O)[C@H](CO)NC(=O)[C@H](Cc3c[nH]c4ccccc34)NC(=O)[C@H]([C@@H](C)O)NC(=O)[C@H](CC(C)C)NC2=O)c1)C(=O)O [3BP-4363] ({DOTA}-[X2]VYCE[dP]D[X33]LTWSC-NH2; linker 4-13 via mXylylene) |  | B (t1/2 between 5.1 and 15.0 minutes) | < 0.01 | 0.01 to 0.0794 | 
9 | CC(C)C[C@@H]1NC(=O)[C@H](Cc2cccc(NC(=O)c3cc(S(N)(=O)=O)co3)c2)NC(=O)[C@H](CC(=O)O)NC(=O)[C@H]2CCCN2C(=O)[C@H](CCC(=O)O)NC(=O)[C@@H](NC(=O)[C@H](CCC(N)=O)NC(=O)CN2CCN(C(=O)CN3CCN(CC(=O)O)CCN(CC(=O)O)CCN(CC(=O)O)CC3)CC2)CSCc2cccc(c2)CSC[C@@H](C(N)=O)NC(=O)[C@H](CO)NC(=O)[C@H](Cc2c[nH]c3ccccc23)NC(=O)[C@H]([C@@H](C)O)NC1=O [3BP-4788] | < 0.01 | A (t1/2>15.0 minutes) | < 0.01 |  | 
10 | CC(C)C[C@@H]1NC(=O)[C@H](Cc2c[nH]c3ccccc23)NC(=O)[C@H](CCO)NC(=O)[C@H]2CCCN2C(=O)[C@H](CCC(=O)O)NC(=O)[C@@H](NC(=O)[C@H](Cc2ccc(O)cc2)NC(=O)[C@@H](NC(=O)CN2CCC(NC(=O)CN3CCN(CC(=O)O)CCN(CC(=O)O)CCN(CC(=O)O)CC3)CC2)C(C)C)CSCc2cccc(c2)CSC[C@@H](C(N)=O)NC(=O)[C@H](CO)NC(=O)[C@H](Cc2c[nH]c3ccccc23)NC(=O)[C@H]([C@@H](C)O)NC1=O [3BP-4102] ({DOTA}-[X2]VYCE[dP][hSer]WLTWSC-NH2; linker 4-13 via mXylylene) | < 0.01 | A (t1/2>15.0 minutes) | < 0.01 |  | 
11 | CC(C)C[C@@H]1NC(=O)[C@H](Cc2c[nH]c3ccccc23)NC(=O)[C@H](CC(=O)O)NC(=O)[C@H]2CCCN2C(=O)[C@H](CCC(=O)O)NC(=O)[C@@H](NC(=O)[C@H](Cc2ccc(O)cc2)NC(=O)CN2CCC(NC(=O)CN3CCN(CC(=O)O)CCN(CC(=O)O)CCN(CC(=O)O)CC3)CC2)CSCc2cccc(c2)CSC[C@@H](C(N)=O)NC(=O)[C@H](CO)NC(=O)[C@H](Cc2c[nH]c3ccccc23)NC(=O)[C@H]([C@@H](C)O)NC1=O [3BP-3867] ({DOTA}-[X2]YCE[dP]DWLTWSC-NH2; linker 3-12 via mXylylene) |  | C (t1/2 between 2.1 and 5.0 minutes) | < 0.01 |  | < 0.01
12 | CC(C)C[C@@H]1NC(=O)[C@H](Cc2c[nH]c3ccccc23)NC(=O)[C@H](CC(=O)O)NC(=O)[C@H]2CCCN2C(=O)[C@H](CCC(=O)O)NC(=O)[C@@H](NC(=O)[C@H](Cc2ccc(O)cc2)NC(=O)CN2CCN(C(=O)CN3CCN(CC(=O)O)CCN(CC(=O)O)CCN(CC(=O)O)CC3)CC2)CSCc2cccc(c2)CSC[C@@H](C(N)=O)NC(=O)[C@H](CO)NC(=O)[C@H](Cc2c[nH]c3ccccc23)NC(=O)[C@H]([C@@H](C)O)NC1=O [3BP-4446] ({DOTA}-[X1]YCE[dP]DWLTWSC-NH2; linker 3-12 via mXylylene) |  | C (t1/2 between 2.1 and 5.0 minutes) | < 0.01 | 0.01 to 0.0794 | 
13 | CC(C)C[C@@H]1NC(=O)[C@H](Cc2ccc(NC(=O)c3ccc(S(N)(=O)=O)s3)cc2)NC(=O)[C@H](CC(=O)O)NC(=O)[C@H]2CCCN2C(=O)[C@H](CCC(=O)O)NC(=O)[C@@H](NC(=O)[C@H](Cc2ccc(O)cc2)NC(=O)CN2CCN(C(=O)CN3CCN(CC(=O)O)CCN(CC(=O)O)CCN(CC(=O)O)CC3)CC2)CSCc2cccc(c2)CSC[C@@H](C(N)=O)NC(=O)[C@H](CO)NC(=O)[C@H](Cc2c[nH]c3ccccc23)NC(=O)[C@H]([C@@H](C)O)NC1=O [3BP-4457] ({DOTA}-[X1]YCE[dP]D[Phe(4-NH2)](X27)LTWSC-NH2; linker 3-12 via mXylylene) |  | B (t1/2 between 5.1 and 15.0 minutes) | < 0.01 | < 0.01 | 
